In brackets after ≈: the same amount, converted by molar mass. Where two headings read alike, the source gives them in different places. Numbered stars: 1 amine (or outer) side, 2 acyl side, 3 side chain; on linkers, the order of the positions; unused ones are H or OH. Bridge positions count the residues as written; N and C are the ends. Square brackets hold non-standard residues; d marks the D form. Peptide text beside a SMILES is read from it. * marks the point of attachment. Trp(7-Me) = Cc1cccc2c(C[C@H](N)C(=O)O)c[nH]c12; Sebacoyl = O=C(CCCCCCCCC(=O)[*:2])[*:1]; NH(CH2)9CO = O=C(CCCCCCCCCN[*:1])[*:2]; 2Nal = N[C@@H](Cc1ccc2ccccc2c1)C(=O)O; Suberoyl = O=C(CCCCCCC(=O)[*:2])[*:1]; d2Nal = N[C@H](Cc1ccc2ccccc2c1)C(=O)O; C12 diacid = O=C(O)CCCCCCCCCCC(=O)*; X1 = O=C(CCCCCCCCCCCCCN[*:1])[*:2]; 3Pal = N[C@@H](Cc1cccnc1)C(=O)O; 12Ado = NCCCCCCCCCCCC(=O)O; Aun = NCCCCCCCCCCC(=O)O; Thp = NC1(C(=O)O)CCOCC1; Me2NCH2CH2 = CN(C)CC*; Aib = CC(C)(N)C(=O)O; Aoc = NCCCCCCCC(=O)O; Sar = CNCC(=O)O
Legend:
[1] = Protease stability in simulated gastric fluids (FaSSGF) (Table 7); assay type: in vitro ADME; details: fassgf with pepsin, 60 min, 37° C., read-out: Remaining percentage of peptide compound, FaSSGF 60 (min)
Method in brief: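 Peptides at 1 μM final were incubated at 37 °C in simulated gastric fluid with pepsin (320 mg per 100 mL SGF concentrate). Samples were quenched with ethanol (0.1% HCOOH) at 0, 60, 120 and 240 min and analysed by LC-MS/MS. Percent remaining is the peak area relative to T0 (100%).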

[2] = Solubility of peptide compounds in buffer formulations (Table 5); assay type: physicochemical; details: target 1 mg/ml
Method in brief: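 Solubility was quantified by UHPLC-UV, comparing 1:10-diluted filtrate peak areas with a DMSO reference standard and correcting for extinction coefficients. Samples were prepared from dried DMSO stock at 1 mg/mL nominal in pH 1.2 HCl, pH 6.5 or pH 7.4 phosphate (50 mM), and agitated 2 h.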

human IL-23R = biological target: T1, human IL-23R (Homo sapiens, UniProt Q5VWK5); assay: Inhibition of IL-23 binding to IL-23R as measured by ELISA (Table 8); details: human IL23 coated 1 μg/ml; human IL-23R-Fc 0.1 μg/ml; 60 min; read-out: Human ELISA IL23/IL23R IC50
T1 sequence (Q5VWK5 24-353 limits assumed): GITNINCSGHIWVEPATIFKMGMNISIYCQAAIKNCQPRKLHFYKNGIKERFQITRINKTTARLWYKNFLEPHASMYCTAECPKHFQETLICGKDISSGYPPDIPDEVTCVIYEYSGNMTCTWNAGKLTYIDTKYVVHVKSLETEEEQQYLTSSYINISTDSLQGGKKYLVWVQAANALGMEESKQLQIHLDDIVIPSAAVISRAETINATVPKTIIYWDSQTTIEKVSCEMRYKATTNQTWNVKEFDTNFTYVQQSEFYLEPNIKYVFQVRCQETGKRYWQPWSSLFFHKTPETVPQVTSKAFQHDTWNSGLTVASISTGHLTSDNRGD
Procedure: Antagonism of compounds for human interleukin-23 receptor inhibitors, was determined by an ELISA assay.
A 384-well plate was coated with 50 μl/well of human IL23 at a final concentration of 1 μg/ml and incubated overnight at 4° C. The wells were washed 3 times with 80 μl wash buffer and blocked with 80 μl blocking buffer for 60 minutes at room temperature and washed again. 20 μl of serially diluted test peptides was added to each well and subsequently 20 μl of recombinant human IL-23R-Fc chimera at final concentration of 0.1 μg/ml. The plate was incubated for 60 minutes at room temperature. After the wells were washed, bound IL23R-Fc was detected with goat anti-hu-IgG1-HRP antibody. Signals were visualized with QUANTABLU fluorogenic peroxidase substrate.

[3] = Chemical stability (relative purity loss) of peptide compounds in buffer formulations (Table 6); assay type: physicochemical; details: 2° C. and 37° C.
Method in brief: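 Compounds at 0.5 mg/mL in 50 mM HCl pH 1.2, 50 mM phosphate pH 6.5 or pH 7.4, each with acetonitrile (3:1), stored 24 hours at 2° C and 37° C. Purity measured by UHPLC-UV before and after. Stability expressed as relative purity loss.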

[4] = Buffer pH 1.1 (head; method: 50 mM HCl pH 1.2), 2 h agitation, read-out: Solubility, Buffer pH 1.1
[5] = aqueous buffer, 50 mM phosphate buffer pH 6.5, 2 h agitation, read-out: Solubility, Buffer pH 6.5
[6] = aqueous buffer, 50 mM phosphate buffer pH 7.4, 2 h agitation, read-out: Solubility, Buffer pH 7.4
[7] = 50 mM phosphate buffer pH 6.5 + acetonitrile (3:1), read-out: Chemical stability (relative purity loss), Buffer pH 6.5
[8] = 50 mM phosphate buffer pH 7.4 + acetonitrile (3:1), read-out: Chemical stability (relative purity loss), Buffer pH 7.4
[9] = 50 mm hcl + acetonitrile, Buffer pH 1.1 (head; method: 50 mM HCl pH 1.2 + acetonitrile 3:1), read-out: Chemical stability (relative purity loss), Buffer pH 1.1

remaining at 1 h, 1 µM [1] [%] | solubility at 2 h [2, 4] [µg/mL] | solubility at 2 h [2, 5] [µg/mL] | solubility at 2 h [2, 6] [µg/mL] | IC50 (human IL-23R) [nM] | degraded at 24 h [3, 7] [%] | degraded at 24 h [3, 8] [%] | degraded at 24 h [3, 9] [%] | Compound
77 | ≥ 920 | < 10 | < 10 | 0.3 | 0 | 0 | 6.2 | Cc1cccc2c(C[C@@H]3NC(=O)CCCCCCCCCCCCCNC(=O)CC[C@@H](C(=O)N[C@@H](CC(N)=O)C(=O)N[C@@H](Cc4cccnc4)C(=O)N(C)CC(N)=O)NC(=O)C(C)(C)NC(=O)[C@H](Cc4ccc5ccccc5c4)NC(=O)[C@H](Cc4ccc(OCCN(C)C)cc4)NC(=O)C4(CCOCC4)NC(=O)[C@H](CCC(N)=O)NC3=O)c[nH]c12 [compound 1] ([X1][Trp(7-Me)]Q[Thp]Y(Me2NCH2CH2)[2Nal][Aib]EN[3Pal][Sar]-NH2; lactam N-8)
73 | ≥ 1140 | 220 (≈ 135 µM) | 10 (≈ 6.13 µM) | 0.32 | 0 | 0.1 | 6.4 | Cc1cccc2c(C[C@@H]3NC(=O)CCCCCCCCCCCNC(=O)CC[C@@H](C(=O)N[C@@H](CC(N)=O)C(=O)N[C@@H](Cc4cccnc4)C(=O)N(C)CC(N)=O)NC(=O)C(C)(C)NC(=O)[C@H](Cc4ccc5ccccc5c4)NC(=O)[C@H](Cc4ccc(OCCN(C)C)cc4)NC(=O)C4(CCOCC4)NC(=O)[C@H](CCC(N)=O)NC3=O)c[nH]c12 [compound 2] ([12Ado][Trp(7-Me)]Q[Thp]Y(Me2NCH2CH2)[2Nal][Aib]EN[3Pal][Sar]-NH2; lactam N-8)
80 | ≥ 970 | 270 (≈ 167 µM) | 60 (≈ 37.1 µM) | 0.62 | 0 | 0 | 6.3 | Cc1cccc2c(C[C@@H]3NC(=O)CCCCCCCCCCNC(=O)CC[C@@H](C(=O)N[C@@H](CC(N)=O)C(=O)N[C@@H](Cc4cccnc4)C(=O)N(C)CC(N)=O)NC(=O)C(C)(C)NC(=O)[C@@H](Cc4ccc5ccccc5c4)NC(=O)[C@H](Cc4ccc(OCCN(C)C)cc4)NC(=O)C4(CCOCC4)NC(=O)[C@H](CCC(N)=O)NC3=O)c[nH]c12 [compound 4] ([Aun][Trp(7-Me)]Q[Thp]Y(Me2NCH2CH2)[d2Nal][Aib]EN[3Pal][Sar]-NH2; lactam N-8)
6 | 20 (≈ 12.5 µM) | < 10 | < 10 | 2.41 | 0 | 0.5 | 3.9 | Cc1cccc2c(C[C@@H]3NC(=O)CCCCCCCCCCNC(=O)CC[C@@H](C(=O)N[C@@H](CC(N)=O)C(=O)N[C@@H](Cc4cccnc4)C(=O)N(C)CC(N)=O)NC(=O)C(C)(C)NC(=O)[C@H](Cc4ccc5ccccc5c4)NC(=O)[C@H](Cc4ccc(OCCN(C)C)cc4)NC(=O)C4(CCOCC4)NC(=O)[C@H](CC(C)C)NC3=O)c[nH]c12 [compound 7] ([Aun][Trp(7-Me)]L[Thp]Y(Me2NCH2CH2)[2Nal][Aib]EN[3Pal][Sar]-NH2; lactam N-8)
7 | 20 (≈ 12.6 µM) | < 10 | < 10 | 1.69 | 0 | 0 | 6.2 | Cc1cccc2c(C[C@@H]3NC(=O)CCCCCCCCCNC(=O)CC[C@@H](C(=O)N[C@@H](CC(N)=O)C(=O)N[C@@H](Cc4cccnc4)C(=O)N(C)CC(N)=O)NC(=O)C(C)(C)NC(=O)[C@H](Cc4ccc5ccccc5c4)NC(=O)[C@H](Cc4ccc(OCCN(C)C)cc4)NC(=O)C4(CCOCC4)NC(=O)[C@H](CC(C)C)NC3=O)c[nH]c12 [compound 8] ([NH(CH2)9CO][Trp(7-Me)]L[Thp]Y(Me2NCH2CH2)[2Nal][Aib]EN[3Pal][Sar]-NH2; lactam N-8)
59 | ≥ 1160 | 260 (≈ 167 µM) | 80 (≈ 51.3 µM) | 0.94 | 0 | 0 | 5.6 | Cc1cccc2c(C[C@@H]3NC(=O)CCCCCCCNC(=O)CC[C@@H](C(=O)N[C@@H](CC(N)=O)C(=O)N[C@@H](Cc4cccnc4)C(=O)N(C)CC(N)=O)NC(=O)C(C)(C)NC(=O)[C@H](Cc4ccc5ccccc5c4)NC(=O)[C@H](Cc4ccc(OCCN(C)C)cc4)NC(=O)C4(CCOCC4)NC(=O)[C@H](CC(C)C)NC3=O)c[nH]c12 [compound 9] ([Aoc][Trp(7-Me)]L[Thp]Y(Me2NCH2CH2)[2Nal][Aib]EN[3Pal][Sar]-NH2; lactam N-8)
88 | ≥ 890 | 240 (≈ 146 µM) | 70 (≈ 42.6 µM) | 0.55 | 0 | 0 | 6.1 | Cc1cccc2c(C[C@@H]3NC(=O)CCCCCCCCCCC(=O)NCCCC[C@@H](C(=O)N[C@@H](CC(N)=O)C(=O)N[C@@H](Cc4cccnc4)C(=O)N(C)CC(N)=O)NC(=O)C(C)(C)NC(=O)[C@H](Cc4ccc5ccccc5c4)NC(=O)[C@H](Cc4ccc(OCCN(C)C)cc4)NC(=O)C4(CCOCC4)NC(=O)[C@H](CCC(N)=O)NC3=O)c[nH]c12 [compound 10] ([Trp(7-Me)]Q[Thp]Y(Me2NCH2CH2)[2Nal][Aib]KN[3Pal][Sar]-NH2; linker N-7 via C12 diacid)
98 | ≥ 940 | 330 (≈ 204 µM) | 500 (≈ 309 µM) | 0.62 | 0 | 0 | 7.9 | Cc1cccc2c(C[C@@H]3NC(=O)CCCCCCCCC(=O)NCCCC[C@@H](C(=O)N[C@@H](CC(N)=O)C(=O)N[C@@H](Cc4cccnc4)C(=O)N(C)CC(N)=O)NC(=O)C(C)(C)NC(=O)[C@H](Cc4ccc5ccccc5c4)NC(=O)[C@H](Cc4ccc(OCCN(C)C)cc4)NC(=O)C4(CCOCC4)NC(=O)[C@H](CCC(N)=O)NC3=O)c[nH]c12 [compound 11] ([Trp(7-Me)]Q[Thp]Y(Me2NCH2CH2)[2Nal][Aib]KN[3Pal][Sar]-NH2; linker N-7 via Sebacoyl)
104 | ≥ 1050 | ≥ 1100 | ≥ 1150 | 0.61 | 0 | 0 | 12 | Cc1cccc2c(C[C@@H]3NC(=O)CCCCCCC(=O)NCCCC[C@@H](C(=O)N[C@@H](CC(N)=O)C(=O)N[C@@H](Cc4cccnc4)C(=O)N(C)CC(N)=O)NC(=O)C(C)(C)NC(=O)[C@H](Cc4ccc5ccccc5c4)NC(=O)[C@H](Cc4ccc(OCCN(C)C)cc4)NC(=O)C4(CCOCC4)NC(=O)[C@H](CCC(N)=O)NC3=O)c[nH]c12 [compound 12] ([Trp(7-Me)]Q[Thp]Y(Me2NCH2CH2)[2Nal][Aib]KN[3Pal][Sar]-NH2; linker N-7 via Suberoyl)
90 | ≥ 1190 | ≥ 1180 | ≥ 1230 | 0.41 | 0 | 0 | 3.1 | CC(=O)NCCCC[C@@H]1NC(=O)[C@H](Cc2c[nH]c3c(C)cccc23)NC(=O)[C@@H](NC(C)=O)CCCCN(C)CCCCN(C)CCCC[C@@H](C(=O)N[C@@H](CC(N)=O)C(=O)N[C@@H](Cc2cccnc2)C(=O)N(C)CC(N)=O)NC(=O)C(C)(C)NC(=O)[C@@H](Cc2ccc3ccccc3c2)NC(=O)[C@H](Cc2ccc(OCCN(C)C)cc2)NC(=O)C2(CCOCC2)NC1=O [compound 13]

Source: US20260297129A1, “PEPTIDES AS SELECTIVE IL-23 RECEPTOR INHIBITORS” (SANOFI, priority 2023, published 2026)
